The test system of test [1] is Mus musculus. Description: Analgesic activity in ICR mouse assessed as pain threshold variation at 6.25 umol/kg, po administered as single dose measured after 60 mins by tail flick test relative to control. Type of test: functional.
The subject of test [2] is Mus musculus. The test can be described thus: Analgesic activity in ICR mouse assessed as pain threshold variation at 6.25 umol/kg, po administered as single dose measured after 90 mins by tail flick test relative to control. Type of test: functional. In general terms: In hot-plate and tail-flick tests a longer latency is read as antinociception.
Test [3] relates to Mus musculus. The test can be described thus: Analgesic activity in ICR mouse assessed as pain threshold variation at 6.25 umol/kg, po administered as single dose measured after 120 mins by tail flick test relative to control. Type of test: functional.
Test [4] concerns Mus musculus. The test can be described thus: Analgesic activity in ICR mouse assessed as pain threshold variation at 6.25 umol/kg, po administered as single dose measured after 150 mins by tail flick test relative to control. Type of test: functional.
For test [5], the system named is Mus musculus. The test can be described thus: Analgesic activity in ICR mouse assessed as pain threshold variation at 6.25 umol/kg, po administered as single dose measured after 180 mins by tail flick test relative to control. Type of test: functional.
Test [6] deals with Mus musculus. The test can be described thus: Analgesic activity in po dosed ICR mouse assessed as pain threshold variation administered as single dose measured after 30 to 180 mins by tail flick test. Type of test: functional, organism-based.
In test [7] the test system is Mus musculus. Description: Analgesic activity in ICR mouse assessed as pain threshold variation at 25 umol/kg, po administered as single dose measured after 30 mins by tail flick test relative to control. Type of test: functional.
The subject of test [8] is Mus musculus. Description: Analgesic activity in ICR mouse assessed as pain threshold variation at 25 umol/kg, po administered as single dose measured after 60 mins by tail flick test relative to control. Type of test: functional.
The subject of test [9] is Mus musculus. The test can be described thus: Analgesic activity in ICR mouse assessed as pain threshold variation at 25 umol/kg, po administered as single dose measured after 90 mins by tail flick test relative to control. Type of test: functional.
The subject of test [10] is Mus musculus. The test can be described thus: Analgesic activity in ICR mouse assessed as pain threshold variation at 25 umol/kg, po administered as single dose measured after 120 mins by tail flick test relative to control. Type of test: functional.
Test [11] relates to Mus musculus. The test can be described thus: Analgesic activity in ICR mouse assessed as pain threshold variation at 25 umol/kg, po administered as single dose measured after 150 mins by tail flick test relative to control. Type of test: functional.
Test [12] concerns Mus musculus. The test can be described thus: Analgesic activity in ICR mouse assessed as pain threshold variation at 25 umol/kg, po administered as single dose measured after 180 mins by tail flick test relative to control. Type of test: functional.
Test [13] has as its system Mus musculus. Description: Analgesic activity in ICR mouse assessed as pain threshold variation at 12.5 umol/kg, po administered as single dose measured after 30 mins by tail flick test relative to control. Type of test: functional.
For test [14], the system named is Mus musculus. The test can be described thus: Analgesic activity in ICR mouse assessed as pain threshold variation at 12.5 umol/kg, po administered as single dose measured after 60 mins by tail flick test relative to control. Type of test: functional.
Test [15] concerns Mus musculus. The test can be described thus: Analgesic activity in ICR mouse assessed as pain threshold variation at 12.5 umol/kg, po administered as single dose measured after 90 mins by tail flick test relative to control. Type of test: functional.
The subject of test [16] is Mus musculus. Description: Analgesic activity in ICR mouse assessed as pain threshold variation at 12.5 umol/kg, po administered as single dose measured after 120 mins by tail flick test relative to control. Type of test: functional.
Test [17] relates to Mus musculus. Description: Analgesic activity in ICR mouse assessed as pain threshold variation at 12.5 umol/kg, po administered as single dose measured after 150 mins by tail flick test relative to control. Type of test: functional.
Test [18] concerns Mus musculus. Description: Analgesic activity in ICR mouse assessed as pain threshold variation at 12.5 umol/kg, po administered as single dose measured after 180 mins by tail flick test relative to control. Type of test: functional.
Test [19] relates to Mus musculus. Description: Analgesic activity in ICR mouse assessed as pain threshold variation at 6.25 umol/kg, po administered as single dose measured after 30 mins by tail flick test relative to control. Type of test: functional.
For test [20], the system named is Mus musculus. The test can be described thus: Analgesic activity in ICR mouse assessed as pain threshold variation at 20 umol/kg, ip administered as single dose measured after 30 mins by tail flick test relative to control. Type of test: functional.
Test [21] relates to Mus musculus. The test can be described thus: Analgesic activity in ICR mouse assessed as pain threshold variation at 20 umol/kg, ip administered as single dose measured after 60 mins by tail flick test relative to control. Type of test: functional.
The subject of test [22] is Mus musculus. Description: Analgesic activity in ICR mouse assessed as pain threshold variation at 20 umol/kg, ip administered as single dose measured after 90 mins by tail flick test relative to control. Type of test: functional.
The test system of test [23] is Mus musculus. Description: Analgesic activity in ICR mouse assessed as pain threshold variation at 20 umol/kg, ip administered as single dose measured after 120 mins by tail flick test relative to control. Type of test: functional.
Test [24] deals with Mus musculus. The test can be described thus: Analgesic activity in ICR mouse assessed as pain threshold variation at 20 umol/kg, ip administered as single dose measured after 150 mins by tail flick test relative to control. Type of test: functional.
Test [25] has as its system Mus musculus. The test can be described thus: Analgesic activity in ICR mouse assessed as pain threshold variation at 20 umol/kg, ip administered as single dose measured after 180 mins by tail flick test relative to control. Type of test: functional.

As for `CC(C)[C@H](NC(=O)CN(c1nc(Cl)nc2[nH]cnc12)C1CC1)C(=O)OCc1ccccc1`, the Activity is 13.94% in the test with Mus musculus [1]; 11.83% in the test on Mus musculus [2]; 9.26% in the test on Mus musculus [3]; 3.07% in the test with Mus musculus [4]; 3.22% in the test on Mus musculus [5]; “Dose-dependent effect” with Mus musculus [6]. Further, the Activity was found to be 33.43% in the test on Mus musculus [7]; 55.49% in the test on Mus musculus [8]; 51.32% in the test on Mus musculus [9]; 27.33% in the test with Mus musculus [10]; 17.91% with Mus musculus [11]; 12.93% in the test with Mus musculus [12]. The Activity with Mus musculus [13] was 15.95%; in the test on Mus musculus [14] it was 26.47%; in the test on Mus musculus [15], 23.59%; in the test with Mus musculus [16] it was 14.96%; in the test with Mus musculus [17] it was 5.43%; in the test on Mus musculus [18] it was 4.58%. Further, the Activity in the test on Mus musculus [19] was determined as 7.69%.

`CN1CC[C@]23c4c5ccc(O)c4O[C@H]2[C@@H](O)C=C[C@H]3[C@H]1C5` [MORPHINE]: the Activity is on record as 147% with Mus musculus [20]; 177.6% in the test on Mus musculus [21]; 122.7% with Mus musculus [22]; 64.9% in the test with Mus musculus [23]; 36.7% with Mus musculus [24]; 32.9% in the test on Mus musculus [25].

In the case of `NCCCC[C@H](NC(=O)CN(c1nc(Cl)nc2[nH]cnc12)C1CC1)C(=O)OCc1ccccc1`, the Activity in the test on Mus musculus [1] is 14.83%; with Mus musculus [2], 11.3%; in the test on Mus musculus [3], 9.01%; in the test with Mus musculus [4] it was 4.87%; with Mus musculus [5], 3.95%; in the test with Mus musculus [6], “Dose-dependent effect”. For the same molecule, the Activity with Mus musculus [7] stood at 26.13%; with Mus musculus [8], 41.16%; in the test with Mus musculus [9], 35.27%; with Mus musculus [10] it was 16.79%; in the test with Mus musculus [11] it was 9.88%; in the test with Mus musculus [12], 2.24%. Besides, the Activity is listed as 18.5% in the test on Mus musculus [13]; 29.98% with Mus musculus [14]; 25.42% with Mus musculus [15]; 11.35% in the test on Mus musculus [16]; 9.91% with Mus musculus [17]; 3.72% in the test on Mus musculus [18]. Besides, the Activity in the test on Mus musculus [19] came to 9.19%.

On to `N=C(N)NCCC[C@H](NC(=O)CN(c1nc(Cl)nc2[nH]cnc12)C1CC1)C(=O)O`, for which the Activity is 17.53% in the test with Mus musculus [1]; 12.08% in the test on Mus musculus [2]; 9.52% with Mus musculus [3]; 5.09% with Mus musculus [4]; 2.15% in the test with Mus musculus [5]; “Dose-dependent effect” with Mus musculus [6]. Moreover, the Activity is 45.41% in the test on Mus musculus [7]; 50.97% in the test on Mus musculus [8]; 27.59% with Mus musculus [9]; 17.03% with Mus musculus [10]; 7.19% with Mus musculus [11]; 5.19% with Mus musculus [12]. Further, the Activity in the test on Mus musculus [13] is recorded as 22.24%; with Mus musculus [14], 39.76%; with Mus musculus [15] it was 18.43%; in the test on Mus musculus [16], 10.28%; in the test with Mus musculus [17] it was 6.93%; with Mus musculus [18], 5.24%. In addition, the Activity in the test with Mus musculus [19] turned out to be 8.9%.

Take `CC(C)C[C@H](NC(=O)CN(c1nc(Cl)nc2[nH]cnc12)C1CC1)C(=O)O`: the Activity was 10.66% in the test on Mus musculus [1]; 16.17% with Mus musculus [2]; 9.44% with Mus musculus [3]; 5.56% with Mus musculus [4]; 2.8% in the test with Mus musculus [5]; “Dose-dependent effect” with Mus musculus [6]. Also, the Activity was determined as 23.4% in the test with Mus musculus [7]; 36.37% in the test with Mus musculus [8]; 26.97% in the test with Mus musculus [9]; 18.74% in the test with Mus musculus [10]; 9.13% in the test with Mus musculus [11]; 3.63% in the test on Mus musculus [12]. The Activity with Mus musculus [13] came out at 15.99%; in the test on Mus musculus [14], 17.3%; with Mus musculus [15], 20.93%; in the test on Mus musculus [16], 13.32%; in the test with Mus musculus [17], 7.77%; with Mus musculus [18], 5.5%. In the test on Mus musculus [19], the Activity was 8.01%.

Take `O=C(CN(c1nc(Cl)nc2[nH]cnc12)C1CC1)NCC(=O)OCc1ccccc1`: the Activity is 13.19% with Mus musculus [1]; 9.93% with Mus musculus [2]; 8.04% with Mus musculus [3]; 3.47% with Mus musculus [4]; 2.64% in the test with Mus musculus [5]; “Dose-dependent effect” with Mus musculus [6]. In addition, the Activity in the test on Mus musculus [7] worked out at 18.65%; with Mus musculus [8], 41.91%; in the test with Mus musculus [9] it was 27.18%; with Mus musculus [10], 21.69%; with Mus musculus [11] it was 17.99%; with Mus musculus [12], 8.31%. Further, the Activity in the test with Mus musculus [13] was 11.25%; with Mus musculus [14], 23.74%; with Mus musculus [15] it was 19%; with Mus musculus [16] it was 14.62%; in the test on Mus musculus [17] it was 6.2%; in the test on Mus musculus [18], 5.45%. For the same molecule, the Activity in the test with Mus musculus [19] came to 5.73%.

In the case of `NCCCC[C@H](NC(=O)CN(c1nc(Cl)nc2[nH]cnc12)C1CC1)C(=O)O`, the Activity in the test with Mus musculus [1] is 16.6%; in the test on Mus musculus [2] it was 14.48%; in the test with Mus musculus [3], 7.05%; in the test with Mus musculus [4], 2.82%; in the test on Mus musculus [5], 2.61%; in the test on Mus musculus [6] it was “Dose-dependent effect”. For the same molecule, the Activity was determined as 31.18% with Mus musculus [7]; 53.76% with Mus musculus [8]; 28.84% in the test with Mus musculus [9]; 16.37% in the test with Mus musculus [10]; 11.64% with Mus musculus [11]; 6.07% with Mus musculus [12]. Also, the Activity turned out to be 16.33% in the test with Mus musculus [13]; 31.34% in the test on Mus musculus [14]; 22.04% with Mus musculus [15]; 9.79% in the test on Mus musculus [16]; 7.39% with Mus musculus [17]; 2.99% in the test on Mus musculus [18]. The Activity in the test with Mus musculus [19] amounted to 8.04%.

The values are drawn from ChEMBL document CHEMBL1152546, “N-[2-chloro-9H-purin-6-yl]-N-cyclopropylglycylamino acids and derivatives: synthesis, evaluation as a class of novel analgesics, and 3D QSAR analysis” (2009).
